Source: patent publication US20050009792A1, “(20S)-1alpha-hydroxy-2-methylene-19-nor-vitamin D3 and its uses” (priority 2003, published 2005)

Legend:
[1] = tested on: bone calcium mobilization; assay: Serum calcium (bone calcium mobilization) in rats on low calcium diet; type: in vivo, Sprague-Dawley rats; conditions: for Serum Ca (mean ± SEM): daily for 7 days, male weanling rats, 0.02% Ca diet
Experimental: (§1) Male, weanling Sprague-Dawley rats were placed on Diet 11 (0.47% Ca) diet+AEK for 11 days, followed by Diet 11 (0.02% Ca)+AEK for 31 days. Dosing (i.p.) began 7 days prior to sacrifice. Doses were given on a daily basis, 24 hours apart. The first 10 cm of the intestine was collected for gut transport studies and serum was collected for bone Ca mobilization analysis.

[2] = tested on: intestinal calcium transport; assay: Intestinal calcium transport in rats on low calcium diet; type: in vivo, Sprague-Dawley rats; conditions: for Ca transport S/M (mean ± SEM): daily for 7 days, male weanling rats, 0.02% Ca diet
Experimental: Intestinal calcium transport was carried out as described by Penman et al (Biochemistry 29, 190-196,1990).
as §1

[3] = target: T1, vitamin D pig intestinal nuclear receptor (Sus scrofa, UniProt A3RGC1); conditions: Ostrem et al. J. Biol. Chem. 262, 14164-14171, 1987; cited from earlier work
T1 construct: from tissue; host or cells: pig intestine (nuclear receptor preparation)
T1 sequence (A3RGC1 1-427): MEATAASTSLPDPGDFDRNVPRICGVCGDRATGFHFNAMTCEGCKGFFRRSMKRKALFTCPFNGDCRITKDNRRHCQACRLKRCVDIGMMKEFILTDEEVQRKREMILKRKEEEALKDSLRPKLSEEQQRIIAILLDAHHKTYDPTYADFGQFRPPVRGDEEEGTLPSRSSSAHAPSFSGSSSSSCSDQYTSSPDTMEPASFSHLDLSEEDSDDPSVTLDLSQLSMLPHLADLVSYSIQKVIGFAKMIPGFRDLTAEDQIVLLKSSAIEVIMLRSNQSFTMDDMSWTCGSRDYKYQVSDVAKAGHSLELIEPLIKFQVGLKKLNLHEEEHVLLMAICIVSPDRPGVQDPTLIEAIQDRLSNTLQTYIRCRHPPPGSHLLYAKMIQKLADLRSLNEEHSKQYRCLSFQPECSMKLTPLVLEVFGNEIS

[4] = tested on: HL-60 cells; assay: Differentiation of HL-60 promyelocytes into monocytes; type: cell-based; conditions: FIG. 2
Experimental: FIG. 2 is a graph illustrating the percent HL-60 cell differentiation as a function of the concentration of (20S)-1α-hydroxy-2-methylene-19-nor-vitamin D3 and of 1,25-dihydroxyvitamin D3
The differentiation of HL-60 promyelocytic into monocytes was determined as described by Ostrem et al (J. Biol. Chem. 262, 14164-14171, 1987).

[5] = target: T1, vitamin D pig intestinal nuclear receptor; assay: Competitive binding of [3H]-1,25-(OH)2-D3 to the porcine intestinal vitamin D receptor
Experimental: FIG. 1 is a graph illustrating the relative activity of (20S)-1α-hydroxy-2-methylene-19-nor-vitamin D3 and 1α,25-dihydroxyvitamin D3 to compete for binding of [^3H]-1,25-(OH)2-D3 to the vitamin D pig intestinal nuclear receptor; and
Competitive binding of the analog to the porcine intestinal receptor was carried out by the method described by Dame et al. (Biochemistry 25, 4523-4534, 1986).

| SMILES | Serum Ca (mean ± SEM) ([1]; 260 pmol/day i.p.) | Ca transport S/M (mean ± SEM) ([2]; 260 pmol/day i.p.) | decrease in binding activity resulting from lack of a 25-hydroxyl [3] [fold] | potency on HL-60 differentiation relative to 1,25-(OH)2D3 ([4]; listed as (20S)-1α-Hydroxy-2-methylene-19-nor-vitamin D3) | potency on HL-60 differentiation relative to 1,25-(OH)2D3 ([4]; listed as (20S)-1α-hydroxy-2-methylene-19-nor-vitamin D3) | Serum Ca (mean ± SEM) ([1]; 130 pmol/day i.p.) | bone calcium mobilization activity relative to 1,25-(OH)2D3 ([1]; statement in words on Table 1) | Ca transport S/M (mean ± SEM) ([2]; 130 pmol/day i.p.) | activity in stimulating intestinal calcium transport relative to 1,25-(OH)2D3 ([2]; statement in words on Table 1) | ability to bind the vitamin D receptor relative to 1,25-dihydroxyvitamin D3 ([5]; FIG. 1) | ability to bind the vitamin D receptor relative to 1,25-dihydroxyvitamin D3 ([5]; FIG. 1, listed as 2-Methylene-19-nor-(20S)-1α-hydroxyvitamin D3) |
| --- | --- | --- | --- | --- | --- | --- | --- | --- | --- | --- | --- |
| C=C1/C(=C\C=C2/CCC[C@]3(C)[C@@H]([C@H](C)CCCC(C)(C)O)CC[C@@H]23)C[C@@H](O)C[C@@H]1O [1α,25-(OH)2D3, 1α,25-dihydroxyvitamin D3, reference compound] | 6.25 ± 0.19 | 7.7 ± 0.52 |  |  |  |  |  |  |  |  |  |
| C=C1/C(=C\C=C2/CCC[C@]3(C)[C@@H]([C@H](C)CCCC(C)C)CC[C@@H]23)C[C@@H](O)C[C@@H]1O [1α-hydroxyvitamin D3] |  |  | 100 |  |  |  |  |  |  |  |  |
| C=C1[C@H](O)CC(=C/C=C2\CCC[C@@]3(C)C2CCC3[C@@H](C)CCCC(C)C)C[C@H]1O (stereo partly drawn) [(20S)-1α-(OH)-2-methylene-19-nor-D3, (20S)-1α-hydroxy-2-methylene-19-nor-vitamin D3] | 12.60 ± 0.54 | 10.0 ± 0.59 |  | more active than 1,25-(OH)2D3 | more potent than 1,25-(OH)2D3 | 9.63 ± 0.12 | higher bone calcium mobilization activity, as compared to 1,25-(OH)2D3 | 10.1 ± 0.68 | higher activity as compared to that of 1,25-(OH)2D3 | only a little less activity than 1,25(OH)2D3 | only one-tenth that of 1,25-dihydroxyvitamin D3 |
